What follows are molecules tested on HIV-IIIb (assay: Test A: Antiviral Assay in MT4 Cells). Conditions: Human immunodeficiency virus 1, IIIB, MT4, 120 h.
Format: cell-based
How it was run: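 MT-4 cells pre-infected with HIV-IIIb (0.004 m.o.i.) at 37 °C, then exposed to 3-fold serial compound dilutions (10 concentrations, quadruplicate) in RPMI 1640/10% FBS. After 5 days at 37 °C, viability read by CellTiter-Glo luminescence.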

How did the EC50 turn out when Cc1cc2nc(-c3ccnc(N4CCn5c(nnc5C(F)(F)F)C4)c3)sc2c(-c2ccc(Cl)cc2)c1[C@H](OC(C)(C)C)C(=O)O [Compound 222, (S)-2-tert-butoxy-2-(7-(4-chlorophenyl)-5-methyl-2-(2-(3-(trifluoromethyl)-5,6-dihydro-[1,2,4]triazolo[4,3-a]pyrazin-7(8H)-yl)pyridin-4-yl)benzo[d]thiazol-6-yl)acetic acid] was run?
Its EC50 is 49 nM.

Same assay, conditions: Human immunodeficiency virus 1, IIIB, MT4, 120 h, Table 2; MT-4 cells infected with HIV-IIIb, 5 days of incubation, CellTiter-Glo; read-out: EC50

For Cc1cc2nc(-n3ccc4ccncc4c3=O)sc2c(-c2ccc(Cl)cc2)c1[C@H](OC(C)(C)C)C(=O)O [Compound 195, (S)-2-tert-butoxy-2-(7-(4-chlorophenyl)-5-methyl-2-(1-oxo-2,7-naphthyridin-2(1H)-yl)benzo[d]thiazol-6-yl)acetic acid], which EC50 is on record?
Its EC50 is 11 nM.

Cc1cc2nc(-c3ccnc(-c4cnc5c(c4)cc(C)n5C)c3)sc2c(-c2ccc(Cl)cc2)c1[C@H](OC(C)(C)C)C(=O)O [Compound 196, (S)-2-tert-butoxy-2-(7-(4-chlorophenyl)-2-(2-(1,2-dimethyl-1H-pyrrolo[2,3-b]pyridin-5-yl)pyridine-4-yl)-5-methylbenzo[d]thiazol-6-yl)acetic acid] was tested. Which EC50 did it give?
Its EC50 is 33 nM.

With Cc1cc2nc(-c3cnc4c(c3)cc(C)n4C)sc2c(-c2ccc(Cl)cc2)c1[C@H](OC(C)(C)C)C(=O)O [Compound 197, (S)-2-tert-butoxy-2-(7-(4-chlorophenyl)-2-(1,2-dimethyl-1H-pyrrolo[2,3-b]pyridin-5-yl)-5-methylbenzo[d]thiazol-6-yl)acetic acid] as the molecule, how does the EC50 read?
Its EC50 is 12 nM.

With Cc1cc2nc(-c3cnc4c(c3)c(C)cn4C)sc2c(-c2ccc(Cl)cc2)c1[C@H](OC(C)(C)C)C(=O)O [Compound 198, (S)-2-tert-butoxy-2-(7-(4-chlorophenyl)-2-(1,3-dimethyl-1H-pyrrolo[2,3-b]pyridin-5-yl)-5-methylbenzo[d]thiazol-6-yl)acetic acid] as the molecule, how does the EC50 read?
Its EC50 is 39 nM.

Which EC50 does the source give for Cc1cc2nc(-c3ccc4nc(C)n([C@H]5CCN(C)C5)c4c3)sc2c(-c2ccc(Cl)cc2)c1[C@H](OC(C)(C)C)C(=O)O [Compound 200, (S)-2-tert-butoxy-2-(7-(4-chlorophenyl)-5-methyl-2-(2-methyl-1-((S)-1-methylpyrrolidin-3-yl)-1H-benzo[d]imidazol-6-yl)benzo[d]thiazol-6-yl)acetic acid] here?
The EC50 was 14 nM.

Cc1cc2nc(-c3cnnc(-c4ccc5c(cnn5C)c4)c3)sc2c(-c2ccc(Cl)cc2)c1[C@H](OC(C)(C)C)C(=O)O [Compound 201, (S)-2-tert-butoxy-2-(7-(4-chlorophenyl)-5-methyl-2-(6-(1-methyl-1H-indazol-5-yl)pyridazin-4-yl)benzo[d]thiazol-6-yl)acetic acid] was tested. Which EC50 did it give?
The EC50 was 7 nM.

How did the EC50 turn out when COc1ccc(-c2nccc(-c3nc4cc(C)c([C@H](OC(C)(C)C)C(=O)O)c(-c5ccc(Cl)cc5)c4s3)n2)cc1OC [Compound 203, (S)-2-tert-butoxy-2-(7-(4-chlorophenyl)-2-(2-(3,4-dimethoxyphenyl)pyrimidin-4-yl)-5-methylbenzo[d]thiazol-6-yl)acetic acid] was run?
The EC50 was 12 nM.

For Cc1cc2nc(-c3ccc(-c4cnn(C)c4C)cc3)sc2c(-c2ccc(Cl)cc2)c1[C@H](OC(C)(C)C)C(=O)O [Compound 204, (S)-2-tert-butoxy-2-(7-(4-chlorophenyl)-2-(4-(1,5-dimethyl-1H-pyrazol-4-yl)phenyl)-5-methylbenzo[d]thiazol-6-yl)acetic acid], which EC50 is on record?
Its EC50 is 155 nM.

For Cc1cc2nc(-c3ccnc(C4CCN(C)CC4)n3)sc2c(-c2ccc(Cl)cc2)c1[C@H](OC(C)(C)C)C(=O)O [Compound 205, (S)-2-tert-butoxy-2-(7-(4-chlorophenyl)-5-methyl-2-(2-(1-methylpiperidin-4-yl)pyrimidin-4-yl)benzo[d]thiazol-6-yl)acetic acid], which EC50 is on record?
Its EC50 is 18 nM.

How did the EC50 turn out when Cc1cc2nc(N3CCc4ncccc4C3)sc2c(-c2ccc(Cl)cc2)c1[C@H](OC(C)(C)C)C(=O)O [Compound 207, (S)-2-tert-butoxy-2-(7-(4-chlorophenyl)-2-(7,8-dihydro-1,6-naphthyridin-6(5H)-yl)-5-methylbenzo[d]thiazol-6-yl)acetic acid] was run?
The EC50 was 19 nM.

For Cc1cc2nc(N3CCc4ccccc4C3)sc2c(-c2ccc(Cl)cc2)c1[C@H](OC(C)(C)C)C(=O)O [Compound 208, (S)-2-tert-butoxy-2-(7-(4-chlorophenyl)-2-(3,4-dihydroisoquinolin-2(1H)-yl)-5-methylbenzo[d]thiazol-6-yl)acetic acid], which EC50 is on record?
Its EC50 is 62 nM.

How did the EC50 turn out when Cc1cc2nc(-c3ccc4c(C)nn(C)c4c3)sc2c(-c2ccc(Cl)cc2)c1[C@H](OC(C)(C)C)C(=O)O [Compound 209, (S)-2-tert-butoxy-2-(7-(4-chlorophenyl)-2-(1,3-dimethyl-1H-indazol-6-yl)-5-methylbenzo[d]thiazol-6-yl)acetic acid] was run?
The EC50 was 16 nM.

For Cc1cc2nc(-c3ccc4c(c3)nnn4C)sc2c(-c2ccc(Cl)cc2)c1[C@H](OC(C)(C)C)C(=O)O [Compound 210, (S)-2-tert-butoxy-2-(7-(4-chlorophenyl)-5-methyl-2-(1-methyl-1H-benzo[d][1,2,3]triazol-5-yl)benzo[d]thiazol-6-yl)acetic acid], which EC50 is on record?
Its EC50 is 6 nM.

For Cc1cc2nc(-c3ccc4c(c3)c(-c3ccncc3)nn4C)sc2c(-c2ccc(Cl)cc2)c1[C@H](OC(C)(C)C)C(=O)O [Compound 213, (S)-2-tert-butoxy-2-(7-(4-chlorophenyl)-5-methyl-2-(1-methyl-3-(pyridin-4-yl)-1H-indazol-5-yl)benzo[d]thiazol-6-yl)acetic acid], which EC50 is on record?
Its EC50 is 4 nM.

With Cc1cc2nc(-c3ccc4c(c3)c(-c3ccccn3)nn4C)sc2c(-c2ccc(Cl)cc2)c1[C@H](OC(C)(C)C)C(=O)O [Compound 214, (S)-2-tert-butoxy-2-(7-(4-chlorophenyl)-5-methyl-2-(1-methyl-3-(pyridin-2-yl)-1H-indazol-5-yl)benzo[d]thiazol-6-yl)acetic acid] as the molecule, how does the EC50 read?
Its EC50 is 17 nM.

With Cc1cc2nc(-c3ccnc(-c4cc(C)c5c(cnn5C)c4)c3)sc2c(-c2ccc(Cl)cc2)c1[C@H](OC(C)(C)C)C(=O)O [Compound 215, (S)-2-tert-butoxy-2-(7-(4-chlorophenyl)-2-(2-(1,7-dimethyl-1H-indazol-5-yl)pyridin-4-yl)-5-methylbenzo[d]thiazol-6-yl)acetic acid] as the molecule, how does the EC50 read?
Its EC50 is 27 nM.

With Cc1cc2nc(-c3ccnc(-c4cc(C)c5nn(C)cc5c4)c3)sc2c(-c2ccc(Cl)cc2)c1[C@H](OC(C)(C)C)C(=O)O [Compound 216, (S)-2-tert-butoxy-2-(7-(4-chlorophenyl)-2-(2-(2,7-dimethyl-2H-indazol-5-yl)pyridin-4-yl)-5-methylbenzo[d]thiazol-6-yl)acetic acid] as the molecule, how does the EC50 read?
Its EC50 is 15 nM.

Which EC50 does the source give for Cc1cc2nc(-c3ccc4c(c3)nc(C)n4C)sc2c(-c2ccc(Cl)cc2)c1[C@H](OC(C)(C)C)C(=O)O [Compound 217, (S)-2-tert-butoxy-2-(7-(4-chlorophenyl)-2-(1,2-dimethyl-1H-benzo[d]imidazol-5-yl)-5-methylbenzo[d]thiazol-6-yl)acetic acid] here?
The EC50 was 7 nM.

Cc1cc2nc(-c3ccnc(N4CCOCC4)c3)sc2c(-c2ccc(Cl)cc2)c1[C@H](OC(C)(C)C)C(=O)O [Compound 218, (S)-2-tert-butoxy-2-(7-(4-chlorophenyl)-5-methyl-2-(2-morpholinopyridin-4-yl)benzo[d]thiazol-6-yl)acetic acid] was tested. Which EC50 did it give?
Its EC50 is 116 nM.

For Cc1cc2nc(-c3ccnc(N4CCN(C)CC4)c3)sc2c(-c2ccc(Cl)cc2)c1[C@H](OC(C)(C)C)C(=O)O [Compound 219, (S)-2-tert-butoxy-2-(7-(4-chlorophenyl)-5-methyl-2-(2-(4-methylpiperazin-1-yl)pyridin-4-yl)benzo[d]thiazol-6-yl)acetic acid], which EC50 is on record?
Its EC50 is 39 nM.

Which EC50 does the source give for CCN1CCN(c2cc(-c3nc4cc(C)c([C@H](OC(C)(C)C)C(=O)O)c(-c5ccc(Cl)cc5)c4s3)ccn2)CC1 [Compound 220, (S)-2-tert-butoxy-2-(7-(4-chlorophenyl)-2-(2-(4-ethylpiperazin-1-yl)pyridin-4-yl)-5-methylbenzo[d]thiazol-6-yl)acetic acid] here?
Its EC50 is 43 nM.

For Cc1cc2nc(-c3ccnc(N4CCN(C(C)C)CC4)c3)sc2c(-c2ccc(Cl)cc2)c1[C@H](OC(C)(C)C)C(=O)O [Compound 221, (S)-2-tert-butoxy-2-(7-(4-chlorophenyl)-2-(2-(4-isopropylpiperazin-1-yl)pyridin-4-yl)-5-methylbenzo[d]thiazol-6-yl)acetic acid], which EC50 is on record?
Its EC50 is 24 nM.

How did the EC50 turn out when Cc1cc2nc(-c3ccnc(N4CCn5cnnc5C4)c3)sc2c(-c2ccc(Cl)cc2)c1[C@H](OC(C)(C)C)C(=O)O [Compound 223, (S)-2-tert-butoxy-2-(7-(4-chlorophenyl)-2-(2-(5,6-dihydro-[1,2,4]triazolo[4,3-a]pyrazin-7(8H)-yl)pyridin-4-yl)-5-methylbenzo[d]thiazol-6-yl)acetic acid] was run?
The EC50 was 312 nM.

How did the EC50 turn out when Cc1cc2nc(-c3ccnc(N4CCc5c(c(C)nn5C)C4)c3)sc2c(-c2ccc(Cl)cc2)c1[C@H](OC(C)(C)C)C(=O)O [Compound 224, (S)-2-tert-butoxy-2-(7-(4-chlorophenyl)-2-(2-(1,3-dimethyl-6,7-dihydro-1H-pyrazolo[4,3-c]pyridin-5(4H)-yl)pyridin-4-yl)-5-methylbenzo[d]thiazol-6-yl)acetic acid] was run?
Its EC50 is 12 nM.

For Cc1cc2nc(-c3ccnc(-c4ccc5c(F)nn(C)c5c4)c3)sc2c(-c2ccc(Cl)cc2)c1[C@H](OC(C)(C)C)C(=O)O [Compound 225, (S)-2-tert-butoxy-2-(7-(4-chlorophenyl)-2-(2-(3-fluoro-1-methyl-1H-indazol-6-yl)pyridin-4-yl)-5-methylbenzo[d]thiazol-6-yl)acetic acid], which EC50 is on record?
The EC50 was 96 nM.

Same assay, conditions: Table 2; MT-4 cells infected with HIV-IIIb, 5 days of incubation, CellTiter-Glo; read-out: EC50

Cc1cc2nc(-c3ccnc(-c4cnc5c(c4)c(C)cn5C)c3)sc2c(-c2ccc(Cl)cc2)c1[C@H](OC(C)(C)C)C(=O)O [Compound 199, (S)-2-tert-butoxy-2-(7-(4-chlorophenyl)-2-(2-(1,3-dimethyl-1H-pyrrolo[2,3-b]pyridin-5-yl)pyridine-4-yl)-5-methylbenzo[d]thiazol-6-yl)acetic acid] was tested. Which EC50 did it give?
The EC50 was 95 nM.
